In patent US12569464B2, “Protein-protein interaction inducing technology” (Arvinas Operations, Inc., priority 2016, dated 2026):
pIC50: −log10 of the molar value. Where two headings read alike, the source gives them in different places.

System: c-Myc expression
Assay: c-Myc ELISA assay in 22RV1 cells
Type: cell-based, human
Details: 22RV1 cells; for pIC50: read-out: c-Myc expression inhibition IC50
Procedure: It is composed of a BRD4-binding warhead which is connected to a VHL-binding warhead by a linear connector. […] Either the inhibition of BRD4 (by binding and blocking the active site of BRD4) or the degradation of BRD4 leads to the down-regulation of the expression level of a downstream protein c-Myc. […] MD simulation of a ternary system composed of BRD4 bromodomain 1, the ligand L and the complex of VHL with EB and EC in the presence of explicit water was performed.
The connector linking the BRD-4 binding warhead and the cereblon-binding warhead was systematically probed from 2 to 8 atoms. For comparison, the parent inhibitor of BRD4 (compound JQ1) was also prepared. […] The expression level of a downstream protein c-Myc was measured. In this assay, either the inhibition of BRD4 (by binding and blocking the active site of BRD4) or the degradation of BRD4 leads to the down-regulation of the expression level of c-Myc.
The connector linking the BRD4 warhead and the VHL-binding warhead was systematically probed from 5 to 19 atoms. […] The expression level of a downstream protein c-Myc was measured. In this assay, either the inhibition of BRD4 (e.g., by binding and blocking the active site of BRD4) or the degradation of BRD4 results in the down-regulation of the expression level of c-Myc.
c-Myc ELISA Assay Protocol
22RV-1 cells were purchased from ATCC and cultured in RPMI+10% FBS media. Cells were harvested using trypsin (Gibco #25200-114), counted and seeded at 30,000 cells/well at a volume of 75 μL/well in RPMI+10% FBS media in 96-well plates. The cells were dosed with compounds diluted in 0.1% DMSO, incubated for 18h then washed and lysed in 50 uL RIPA buffer (50 mM Tris pH8, 150 mM NaCl, 1% Tx-100, 0.1% SDS, 0.5% sodium deoxycholate) supplemented with protease and phosphatase inhibitors. The lysates were clarified at 4000 rpm at 4° C. for 10 minutes then aliquots were added into a 96-well ELISA plate of Novex Human c-Myc ELISA kit from Life Technologies Catalog #KHO2041. 50 µL of c-Myc Detection antibody was added into every well, the plates incubated at room temperature for 3 hrs, then washed with ELISA wash buffer. 100 μL of the anti-rabbit IgG-HRP secondary antibody was added to each well and incubated at room temperature for 30 minutes. The plates were washed with ELISA wash buffer, 100 μL TMB added to each well, and then monitored every 5 minutes for a color change. 100 μL of stop solution is added and the plates read at 450 nm.

[1] = connector composition changes, Table 4

| Compound | maximum inhibition Imax (BRD4-cereblon series, Table 2) [%] | pIC50 (BRD4-cereblon series, Table 2) | maximum inhibition Imax (BRD4-VHL series, Table 3) [%] | pIC50 (BRD4-VHL series, Table 3) | maximum inhibition Imax [1] [%] | pIC50 [1] |
| --- | --- | --- | --- | --- | --- | --- |
| Cc1sc2c(c1C)C(c1ccc(Cl)cc1)=NC(CC(=O)NCCNc1cccc3c1C(=O)N(C1CCC(=O)NC1=O)C3=O)c1nnc(C)n1-2 (mixture of isomers) [Compound 19] | 96 | 6.73 | – | – | – | – |
| Cc1sc2c(c1C)C(c1ccc(Cl)cc1)=NC(CC(=O)NCCCNc1cccc3c1C(=O)N(C1CCC(=O)NC1=O)C3=O)c1nnc(C)n1-2 (mixture of isomers) [Compound 20] | 93 | 6.91 | – | – | – | – |
| Cc1sc2c(c1C)C(c1ccc(Cl)cc1)=NC(CC(=O)NCCCCNc1cccc3c1C(=O)N(C1CCC(=O)NC1=O)C3=O)c1nnc(C)n1-2 (mixture of isomers) [Compound 21] | 88 | 6.60 | – | – | – | – |
| Cc1sc2c(c1C)C(c1ccc(Cl)cc1)=NC(CC(=O)NCCCCCNc1cccc3c1C(=O)N(C1CCC(=O)NC1=O)C3=O)c1nnc(C)n1-2 (mixture of isomers) [Compound 22] | 100 | 8.42 | – | – | – | – |
| Cc1sc2c(c1C)C(c1ccc(Cl)cc1)=NC(CC(=O)NCCOCCNc1cccc3c1C(=O)N(C1CCC(=O)NC1=O)C3=O)c1nnc(C)n1-2 (mixture of isomers) [Compound 23] | 100 | 9.17 | – | – | – | – |
| Cc1sc2c(c1C)C(c1ccc(Cl)cc1)=NC(CC(=O)NCCOCCOCCNc1cccc3c1C(=O)N(C1CCC(=O)NC1=O)C3=O)c1nnc(C)n1-2 (mixture of isomers) [Compound 25] | 100 | 7.89 | – | – | – | – |
| Cc1ncsc1-c1ccc(CNC(=O)[C@@H]2C[C@@H](O)CN2C(=O)[C@@H](NC(=O)COCCCNC(=O)C[C@@H]2N=C(c3ccc(Cl)cc3)c3c(sc(C)c3C)-n3c(C)nnc32)C(C)(C)C)cc1 [Compound 26] | – | – | 98 | 7.02 | – | – |
| Cc1ncsc1-c1ccc(CNC(=O)[C@@H]2C[C@@H](O)CN2C(=O)[C@@H](NC(=O)COCCCCNC(=O)C[C@@H]2N=C(c3ccc(Cl)cc3)c3c(sc(C)c3C)-n3c(C)nnc32)C(C)(C)C)cc1 [Compound 27] | – | – | 100 | 7.11 | – | – |
| Cc1ncsc1-c1ccc(CNC(=O)[C@@H]2C[C@@H](O)CN2C(=O)[C@@H](NC(=O)COCCOCCNC(=O)C[C@@H]2N=C(c3ccc(Cl)cc3)c3c(sc(C)c3C)-n3c(C)nnc32)C(C)(C)C)cc1 [Compound 28] | – | – | 94 | 7.09 | – | – |
| Cc1ncsc1-c1ccc(CNC(=O)[C@@H]2C[C@@H](O)CN2C(=O)[C@@H](NC(=O)COCCCOCCNC(=O)C[C@@H]2N=C(c3ccc(Cl)cc3)c3c(sc(C)c3C)-n3c(C)nnc32)C(C)(C)C)cc1 [Compound 29] | – | – | 97 | 9.80 | 97 | 9.80 |
| Cc1ncsc1-c1ccc(CNC(=O)[C@@H]2C[C@@H](O)CN2C(=O)[C@@H](NC(=O)COCCCOCCCNC(=O)C[C@@H]2N=C(c3ccc(Cl)cc3)c3c(sc(C)c3C)-n3c(C)nnc32)C(C)(C)C)cc1 [Compound 30] | – | – | 100 | 7.71 | – | – |
| Cc1ncsc1-c1ccc(CNC(=O)[C@@H]2C[C@@H](O)CN2C(=O)[C@@H](NC(=O)COCCOCCOCCNC(=O)C[C@@H]2N=C(c3ccc(Cl)cc3)c3c(sc(C)c3C)-n3c(C)nnc32)C(C)(C)C)cc1 [Compound 31] | – | – | 99.3 | 8.91 | – | – |
| Cc1ncsc1-c1ccc(CNC(=O)[C@@H]2C[C@@H](O)CN2C(=O)[C@@H](NC(=O)COCCCOCCCCCNC(=O)C[C@@H]2N=C(c3ccc(Cl)cc3)c3c(sc(C)c3C)-n3c(C)nnc32)C(C)(C)C)cc1 [Compound 32] | – | – | 98 | 9.07 | – | – |
| Cc1ncsc1-c1ccc(CNC(=O)[C@@H]2C[C@@H](O)CN2C(=O)[C@@H](NC(=O)COCCOCCOCCCCNC(=O)C[C@@H]2N=C(c3ccc(Cl)cc3)c3c(sc(C)c3C)-n3c(C)nnc32)C(C)(C)C)cc1 [Compound 33] | – | – | 97 | 8.30 | – | – |
